Measured values from US20020002171A1, “Materials and methods for killing nematodes and nematode eggs” (priority 2000, published 2002).

System: Caenorhabditis elegans
Assay: C. elegans L1 nematicidal dose response in 96-well plates, 5 day visual score (Example 2; same procedure for Example 7, Table 3)
Format: in vivo
Parameters: key to 5 Day Visual Score V1 / 5 Day Visual Score V2 / 5 Day Visual Score V3 / 5 Day Visual Score V4 / 5 Day Visual Score V6 / 5 Day Visual Score V5 / Initial HTS Run Visual Score / Follow-up HTS Run Visual Score: Dead: only stiff L1s (no movement); Dead (L4): worms are dead, but at a later larval stage; majority of worms are L1 (based on size) worms move when plate is tapped; majority of worms are L2 (based on size); majority of worms are L3 (based on size); majority of worms are L4 (based on size); AD: majority of worms are adult; #AD: 5 adult worms or less; B!: sterile (0-25 progeny); B: low broodsize (25-100 progeny); ˜B: moderate broodsize (100-250 progeny); <: reduced broodsize (250-500 progeny); OK: no effect (˜1000+ progeny)
Conditions: for 5 Day Visual Score V4: 2.6 μM
Method: Caenorhabditis elegans adults were grown on Nematode Growth Medium (NGM) until they produced eggs, then the adults were removed.
The eggs were allowed to hatch, and the L1 larvae collected. See The Nematode Caenorhabditis elegans (1988) Cold Spring Harbor Laboratory Press. Using a Matrix Programmable Pipette, the L1s were distributed into 96-well tissue culture plates, 20 L1 in 50 μl NGM per well. Antibiotic/Antimyoticwas added to each well, and 1% by weight E. coli strain HB101. The subject anthelmintic compounds were stored at 5 mM in 100% DMSO. 0.7 μl of compounds 1-31 were added to the left-most column of wells to yield a final concentration of 70 μM in 1.4% DMSO, with 1.4% DMSO only as the control. The compounds were then subjected to 5 more 3-fold dilutions from left to right to yield 6 column concentrations of 70 μM, 23.3 μM, 7.8 μM, 2.6 μM, 0.9 μM, and 0.3 μM. Plates were stored in air-tight Rubbermaid plastic boxes at 20° C. The nematodes had cleared all control wells by day 4, and nematode viability was scored by visual examination under a 100× dissecting microsope on day 5. A visual viability scoring system was used as follows:
Column V1 has a compound concentration of 70 μM with sequential 3-fold dilutions reported in columns V2, V3, V4, V5, and V6, respectively, such that the V6 concentration was 0.3 μM.
The nematicidal activity of anthelmintic Compositions 48-168 were determined in accordance with the procedure outlined in Example 2.

[1] = 0.3 μM, C. elegans L1, scored day 5
[2] = 0.9 μM, C. elegans L1, scored day 5
[3] = 7.8 μM, C. elegans L1, scored day 5
[4] = 23.3 μM, C. elegans L1, scored day 5
[5] = 70 μM, C. elegans L1, scored day 5
[6] = dose response, dilution V1, day 5
[7] = dose response, dilution V2, day 5

SMILES | 5 Day Visual Score V6 [1] | 5 Day Visual Score V4 (C. elegans L1, scored day 5) | 5 Day Visual Score V5 [2] | 5 Day Visual Score V3 [3] | 5 Day Visual Score V2 [4] | 5 Day Visual Score V1 [5] | further results
CCCCOc1ccc(C(=O)N2CC(OCCCc3ccccc3)CC2C(=O)NCc2ccccc2Br)cc1 (centres unmarked) [AKC 102] | B (low broodsize (25-100 progeny)) | L3 |  |  |  |  | 
CCCCOc1ccc(-c2noc(C3CCC(NC(=O)c4ccc5c(c4)OCO5)CC3)n2)cc1 (centres unmarked) [AKC 103] | < (reduced broodsize (250-500 progeny)) | B (low broodsize (25-100 progeny)) | L4/#AD/B | Dead(L4) | Dead(L3/L4) |  | 
CCOc1ccccc1C1=NOC(c2cccc3ccccc23)C1C(=O)NCc1ccc(OC(F)(F)F)cc1 (centres unmarked) [AKC 105] |  | L2/Dead(L |  | L2/Dead(L3) | L2/Dead(L3) | L2/Dead(L3) | 
O=C(Nc1ccc(OC(F)(F)F)cc1)NC1CCC(c2nc(-c3ccccc3)no2)CC1 (centres unmarked) [AKC 107] | L2/Dead(L | Dead(L4) |  |  | Dead(L2/L3) | Dead | 
O=C(Nc1ccc(Br)cc1)N1CCC(c2nc(-c3ccccc3)no2)CC1 [AKC 108] |  | L1 |  | L1 | Dead | Dead | 
O=C(NCCc1ccccc1F)C1C(c2ccccc2Cl)=NOC1c1ccc(-c2ccccc2)cc1 (centres unmarked) [AKC 110] | L1 | L1 | L1 | L1 | L1 | L1 | 
COc1ccccc1-c1noc(C(C)CNC(=O)Nc2ccc(OC(F)(F)F)cc2)n1 (centres unmarked) [AKC 111] | OK (no effect (˜1000+ progeny)) | Dead(L3/L |  | L2 | Dead | Dead | 
Cc1ccc(-c2noc(C3CCC(CNC(=O)Nc4ccc(OC(F)(F)F)cc4)CC3)n2)cc1C (centres unmarked) [AKC 112] | OK (no effect (˜1000+ progeny)) |  | #AD/˜B |  |  |  | 
O=C(NCC1CCC(c2nc(-c3ccccc3)no2)CC1)Nc1ccc(OC(F)(F)F)cc1 (centres unmarked) [AKC 113] | L4/#AD/B | Dead(L2/L |  | Dead | Dead | Dead | 
O=C(Nc1ccc(Br)cc1)NC1CCC(c2nc(-c3ccccc3)no2)CC1 (centres unmarked) [AKC 114] | ˜B (moderate broodsize (100-250 progeny)) | L3/Dead(L |  | L3 | L3/Dead(L4) | Dead | 
O=C(NCCCCCc1nc(-c2ccccc2)no1)Nc1ccc(OC(F)(F)F)cc1 [AKC 115] |  | Dead(L2) | Dead(L2/L | L2/Dead(L2) | Dead(L2/L3) | Dead | 
O=C(NCCc1ccc(F)cc1)C1C(c2ccccc2Cl)=NOC1c1ccc(-c2ccccc2)cc1 (centres unmarked) [AKC 119] | < (reduced broodsize (250-500 progeny)) |  |  |  |  |  | 
CC(C)(C)C1=NOC(c2ccc(-c3ccccc3)cc2)C1C(=O)NCCc1ccccc1F (centres unmarked) [AKC 120] | OK (no effect (˜1000+ progeny)) |  | #AD/˜B | L1 |  | L1 | 
COc1ccc(C2=NOC(c3ccc(-c4ccccc4)cc3)C2C(=O)NCCc2ccccc2F)cc1 (centres unmarked) [AKC 121] |  | #AD/˜B |  |  | L1 | L1 | 
CCOc1ccc(C2ON=C(c3ccc(F)cc3)C2C(=O)NCCc2ccc(F)cc2)cc1 (centres unmarked) [AKC 122] | OK (no effect (˜1000+ progeny)) |  |  |  | L1 | Dead | 
CCOc1ccc(C2ON=C(c3ccc(N(C)C)cc3)C2C(=O)NCCc2ccc(F)cc2)cc1 (centres unmarked) [AKC 123] | #AD/˜B |  |  |  |  | L1 | 

SMILES | 5 Day Visual Score V6 [1] | 5 Day Visual Score V4 (C. elegans L1, scored day 5) | 5 Day Visual Score V5 [2] | 5 Day Visual Score V3 [3] | 5 Day Visual Score V2 [4] | 5 Day Visual Score V1 [5] | further results
CCOc1cccc(C2ON=C(c3ccccc3OCC)C2C(=O)NCCc2ccc(OC)c(OCC)c2)c1 (centres unmarked) [AKC 124] | L4/#AD/B | L4/#AD/B | L4/#AD/B |  |  |  | 
CCOc1cccc(C2ON=C(c3ccccc3OCC)C2C(=O)NCc2ccc(OC(F)(F)F)cc2)c1 (centres unmarked) [AKC 125] |  | L2 |  | L2 | L2/Dead(L4) | L2/Dead(L3) | 
CCCCOc1ccc(C(=O)N2CC(OCCCc3ccccc3)CC2C(=O)NCc2ccccc2OC)cc1 (centres unmarked) [AKC 126] | #AD/˜B | #AD/˜B | ˜B (moderate broodsize (100-250 progeny)) |  |  |  | 
Cc1ccc(C(CC(=O)c2ccccc2)Nc2ccc(I)cc2)o1 (centres unmarked) [AKC 128] | OK (no effect (˜1000+ progeny)) | L1 | #AD/˜B | Dead | Dead | Dead | 
Cc1ccc(C(CC(=O)c2ccccc2)Nc2ccc(I)cc2F)o1 (centres unmarked) [AKC 129] |  |  | OK (no effect (˜1000+ progeny)) |  | Dead | Dead | 
Cc1ccc(C(CC(=O)c2ccc(C)c(C)c2)Nc2cc(Br)c(C)c(Br)c2)o1 (centres unmarked) [AKC 130] |  | #AD/˜B | OK (no effect (˜1000+ progeny)) |  | #AD/-B | Dead | 
CCC(=O)C(C)C(Nc1cc(Br)c(C)c(Br)c1)c1ccc(C)o1 (centres unmarked) [AKC 131] | < (reduced broodsize (250-500 progeny)) | #AD/˜B | #AD/˜B | #AD/˜B | L1 | Dead | 
CCCc1ccc(C(Nc2ccc(-c3ccccc3)cc2)C2CCCCC2=O)cc1 (centres unmarked) [AKC 132] | Dead |  |  | Dead | Dead | Dead(L2) | 
CCCc1ccc(C(CC(=O)c2ccc(C)cc2)Nc2ccc(-c3ccccc3)cc2)cc1 (centres unmarked) [AKC 133] | Dead | Dead | Dead | Dead | Dead | Dead | 
Fc1ccc(N2CCN(c3nc(NCCC(c4ccccc4)c4ccccc4)ns3)CC2)cc1 [AKC 134] | OK (no effect (˜1000+ progeny)) |  |  | Dead | Dead | Dead | 
Fc1ccc(N2CCN(c3nc(NCc4ccc(C(F)(F)F)cc4)ns3)CC2)cc1 [AKC 135] |  |  | ˜B (moderate broodsize (100-250 progeny)) |  | L1 | Dead | 
CCCCCCCCS(=O)(=O)N1CCN(C(=O)C=Cc2cccc(C(F)(F)F)c2)CC1C(=O)NCc1ccc(C(F)(F)F)cc1 (centres unmarked) [AKC 171] |  |  | < (reduced broodsize (250-500 progeny)) | Dead(L4)/#A | L2 | Dead | 
CN(Cc1ccccc1)c1nc(NCc2ccccc2)ns1 [AKC 328] |  |  |  |  |  |  | Follow-up HTS Run % Run (Follow-up HTS run): 101%; Follow-up HTS Run mOD (Follow-up HTS run): 163 mOD; Initial HTS Run % Run (Initial HTS run): 98%; Initial HTS Run mOD (Initial HTS run): 108 mOD; 5 Day Visual Score V1 [6]: Dead; 5 Day Visual Score V2 [7]: L1; 5 Day Visual Score V5 (dose response, dilution V5, day 5): ˜B (moderate broodsize (100-250 progeny))
CN(CCc1ccccc1)c1nc(NC2CCCCCCCCCCC2)ns1 [AKC 335] |  |  |  |  |  |  | Follow-up HTS Run % Run (Follow-up HTS run): 82%; Follow-up HTS Run Visual Score (Follow-up HTS run): Dead; Follow-up HTS Run mOD (Follow-up HTS run): 132 mOD; Initial HTS Run % Run (Initial HTS run): 104%; Initial HTS Run Visual Score (Initial HTS run): Dead; Initial HTS Run mOD (Initial HTS run): 114 mOD; 5 Day Visual Score V1 [6]: Dead; 5 Day Visual Score V2 [7]: Dead; 5 Day Visual Score V3 (dose response, dilution V3, day 5): Dead; 5 Day Visual Score V6 (dose response, dilution V6, day 5): OK (no effect (˜1000+ progeny))
CCC1CCCCN1c1cc(Oc2ccc3oc4ccccc4c3c2)ncn1 (centres unmarked) [AKC 340] |  |  |  |  | L1 | L1 | 
O=C(NCCc1ccccc1F)C1C(c2ccc(F)cc2)=NOC1c1ccc(-c2ccccc2)cc1 (centres unmarked) [AKC 2153] |  |  |  |  | L1 | L1 | 
